Data: patent US20260007692A1, “BIORESORBABLE ORGANIC BIOELECTRONICS” (priority 2023, published 2026)

Columns and labels:
HLF-1 = assay: MTT cell viability assay (limiting-dilution toxicity); type: cell-based, human; settings: 1 day exposure, up to 1 mg mL^−1
Method: The MTT cell viability assay was conducted to determine in vitro toxicity of A5, ETE-S and ETE-PC. Briefly, HLF-1 (2×10^4 cells well-1) were plated in a 96-well flat-bottom microplate and grown for 24 h. Cells were treated with A5, ETE-S, or ETE-PC (0-1000 μg ml^−1) for 24 h. Post-treatment, 200 μL of MTT (0.5 mg mL^−1) was added into each well and incubated at 37° C. for 4 h. After incubation, 200 μL of isopropanol was added to dissolve formazan crystals. The optical density of formazan solution, as a measure of live cells, was obtained using a microplate reader at 570 nm (Spark Cyto, Tecan). The formazan signal (live cell count) was normalized to the control samples not exposed to A5 or ETE-Rs. 3 biological and 3 technical replicates were used for each setting. Each well contained up to 200 μg of our compound (1 mg mL^−1, 200 μL) which can be compared to a typical in vivo injection of 400 ng (40 mg mL^−1, 10 nL).

[1] = biological target: T1, horseradish peroxidase (HRP) (Armoracia rusticana, UniProt P00433); assay: Enzymatic polymerization of ETE-PC with HRP and H2O2; type: biochemical; settings: ETE-PC 500 μg/ml, HRP 5 U/ml
T1 construct: purchased Merck, Sigma Aldrich P8375-25KU
T1 sequence (P00433 31-338 limits assumed): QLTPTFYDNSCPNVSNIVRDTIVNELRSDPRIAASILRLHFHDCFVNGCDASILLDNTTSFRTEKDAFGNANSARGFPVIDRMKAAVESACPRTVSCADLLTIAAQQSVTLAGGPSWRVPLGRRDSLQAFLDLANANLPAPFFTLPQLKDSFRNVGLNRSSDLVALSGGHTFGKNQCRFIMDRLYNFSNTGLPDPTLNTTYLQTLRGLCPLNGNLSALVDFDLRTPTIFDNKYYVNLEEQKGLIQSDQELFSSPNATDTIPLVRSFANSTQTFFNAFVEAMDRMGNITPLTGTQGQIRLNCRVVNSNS
Method: A solution of ETE-PC (500 μg/ml) was prepared in DPBS (Thermo Fischer, Gibco, Cat no. 14190-250) and mixed with different concentrations of hydrogen peroxide (H2O2) (0.001-0.01%) and horseradish peroxidase (HRP) (Merck, Sigma Aldrich, P8375-25KU) (5 U/ml in DPBS) was added. The polymerization was examined by the change of colour of the ETE-PC solution from slightly yellow to black and taking absorbance at 350 nm and 780 nm to detect polymerized and unpolymerized ETE-PC. The absorbance maxima of polymerized and unpolymerized ETE-PC were determined by a wavelength scan using UV-Vis spectrophotometry by Spark Cyto (Tecan) multi-mode plate reader.

[2] = tested on: normal human lung fibroblast (HLF-1) cells; assay: Calcein-AM cytotoxicity assessment in normal lung fibroblast; type: cell-based; settings: 24 hrs
Method: Study of the in vitro toxicity of ETE-PC in normal human lung fibroblast (HLF-1) cells. Briefly, HLF-1 cells were seeded in 96 well plate at a density of 2×10^4 cell per well and grown for 24 hrs. Later cells were treated with various concentrations of ETE-PC (5-1000 μg/ml) for 24 hrs. Post treatment, 200 μl live cell staining dye calcein-AM (Thermo Fisher, Invitrogen, Cat no. C3100MP) (2 μM in PR free DMEM) was added to wells and incubated for 30 min followed by examination of live cells using fluorescence cell imaging (Spark Cyto cell imager, Tecan).

[3] = Oxidation / redox potential of trimers and EDOT monomer; type: physicochemical

Row | SMILES | cell toxicity (HLF-1) | H2O2 concentration at which polymerization by HRP got saturated [1] | concentration of H2O2 required for HRP mediated polymerization [1] | morphology in phase contrast images ([2]; 5-1000 μg/ml) | calcein-AM fluorescence vs control ([2]; even at 1000 μg/ml) | oxidation potential [3]
1 | O=S(=O)(O)CCCCOCCc1cc(-c2scc3c2OCCO3)sc1-c1scc2c1OCCO2 [ETE-S, sodium 4-(2-(2,5-bis(2,3-dihydrothieno[3,4-b][1,4]dioxin-5-yl)thiophene-3-yl)ethoxy)butane-1-sulfonate] | some toxicity at high concentrations |  |  |  |  | 
2 | C[N+](C)(C)CCOP(=O)([O-])OCCc1cc(-c2scc3c2OCCO3)sc1-c1scc2c1OCCO2 [ETE-PC] | neither A5 nor ETE-PC showed cell toxicity | 0.002% | 0.001% | No detrimental change in morphology of HLF-1 cells was observed | no change the calcein-AM fluorescence | 
3 | c1scc2c1OCCO2 [EDOT, 3,4-ethylenedioxythiophene] |  |  |  |  |  | 1.2 V
